# Values quoted from earlier work, collected in US20190203207A1, “Anabolic Enhancers for Ameliorating Neurodegeneration” (priority 2016, published 2019).
# Entries after “also recorded” stand apart in the source; their conditions may differ.
# Test system: insulin/mTOR signaling pathway
substance,measurement,setting,value
insulin,GLUT1 and HIF1a levels,"insulin injection, four RP mouse models",increased levels
same,Cone survival / cone degeneration,"systemic insulin, four RP mouse models (Punzo et al.)",encouraged cone survival; also recorded: delay degeneration of cones
